*1 amine or outer side, *2 acyl side, *3 side chain or, on linkers, in order; H or OH if unused. Where a SMILES comes first, the peptide text is derived from it. Bridges are numbered along the chain shown (N, C = ends). C6F4(1,4-diyl) = Fc1c(F)c([*:2])c(F)c(F)c1[*:1]
molecular target: Kelch-like ECH-associated protein 1 (Homo sapiens, UniProt Q14145); experiment: Displacement of F-14 from Keap1 Kelch domain (unknown origin) expressed in Escherichia coli BL21 (DE3) after 15 mins by fluorescence polarization assay
Sequence (Q14145 whole entry, the tested form may be a part): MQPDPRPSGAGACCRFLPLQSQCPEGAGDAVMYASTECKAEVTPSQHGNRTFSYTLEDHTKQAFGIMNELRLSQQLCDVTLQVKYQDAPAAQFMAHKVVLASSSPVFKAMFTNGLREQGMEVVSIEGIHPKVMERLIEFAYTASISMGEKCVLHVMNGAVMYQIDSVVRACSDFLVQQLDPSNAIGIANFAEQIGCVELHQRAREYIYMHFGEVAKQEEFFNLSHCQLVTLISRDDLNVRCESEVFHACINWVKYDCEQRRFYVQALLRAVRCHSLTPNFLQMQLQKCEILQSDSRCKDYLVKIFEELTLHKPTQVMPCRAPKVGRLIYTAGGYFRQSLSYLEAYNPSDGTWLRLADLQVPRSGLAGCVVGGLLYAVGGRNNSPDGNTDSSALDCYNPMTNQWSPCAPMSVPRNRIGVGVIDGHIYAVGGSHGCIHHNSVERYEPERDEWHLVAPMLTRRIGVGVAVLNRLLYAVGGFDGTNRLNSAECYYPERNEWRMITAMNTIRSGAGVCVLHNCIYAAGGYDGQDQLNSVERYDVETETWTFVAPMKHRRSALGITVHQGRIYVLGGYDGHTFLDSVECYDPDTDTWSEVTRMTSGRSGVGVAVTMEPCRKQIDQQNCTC

Row | Structure (SMILES) | Ki
1 | CC(=O)N[C@H]1CSSC[C@@H](C(N)=O)NC(=O)CNC(=O)[C@H]([C@@H](C)O)NC(=O)[C@H](CCC(=O)O)NC(=O)[C@H](CCC(=O)O)NC1=O (Ac-CEETGC-NH2; disulfide 1-6) | 151 µM

test system: THP-1; experiment: Antiproliferative activity against human THP1 cells; assay type: cell-based

Row | Structure (SMILES) | Activity
2 | CC(=O)N[C@H]1CSc2c(F)c(F)c(c(F)c2F)SC[C@@H](C(N)=O)NC(=O)[C@H](Cc2ccccc2)NC(=O)[C@H](CCC(=O)O)NC(=O)CNC(=O)[C@H]([C@@H](C)O)NC(=O)[C@H](CCC(=O)O)NC(=O)[C@@H]2CCCN2C(=O)[C@H](CC(=O)O)NC(=O)[C@H](CC(C)C)NC1=O (Ac-CLDPETGEFC-NH2; linker 1-10 via C6F4(1,4-diyl)) | Non-Toxic
3 | C[C@@H](O)[C@@H]1NC(=O)[C@H](CCC(=O)O)NC(=O)[C@H](CCC(=O)O)NC(=O)[C@H](CC(=O)O)NC(=O)[C@@H](N)CSSC[C@@H](C(N)=O)NC(=O)[C@H](CCC(=O)O)NC(=O)CNC1=O (H-CDEETGEC-NH2; disulfide 1-8) | Non-Toxic
4 | CC(=O)N[C@H]1CSSC[C@@H](C(N)=O)NC(=O)[C@H](Cc2ccccc2)NC(=O)[C@H](CCC(=O)O)NC(=O)CNC(=O)[C@H]([C@@H](C)O)NC(=O)[C@H](CCC(=O)O)NC(=O)[C@H](CCC(=O)O)NC(=O)[C@H](CC(=O)O)NC(=O)[C@H](CC(C)C)NC1=O (Ac-CLDEETGEFC-NH2; disulfide 1-10) | Non-Toxic
5 | CC(=O)N[C@H]1CSSC[C@@H](C(N)=O)NC(=O)CNC(=O)[C@H]([C@@H](C)O)NC(=O)[C@H](CCC(=O)O)NC(=O)[C@H](CCC(=O)O)NC1=O (Ac-CEETGC-NH2; disulfide 1-6) | Non-Toxic
6 | CC(=O)N[C@H]1CSSC[C@@H](C(=O)O)NC(=O)[C@H](CCC(=O)O)NC(=O)CNC(=O)[C@H]([C@@H](C)O)NC(=O)[C@H](CCC(=O)O)NC(=O)[C@H](CCC(=O)O)NC(=O)[C@H](CC(=O)O)NC1=O (Ac-CDEETGEC-OH; disulfide 1-8) | Non-Toxic
7 | CC(=O)N[C@H]1CSSC[C@@H](C(N)=O)NC(=O)[C@H](CCC(=O)O)NC(=O)CNC(=O)[C@H]([C@@H](C)O)NC(=O)[C@H](CCC(=O)O)NC(=O)[C@H](CCC(=O)O)NC(=O)[C@H](CC(=O)O)NC1=O (Ac-CDEETGEC-NH2; disulfide 1-8) | Non-Toxic
8 | CC(=O)N[C@H]1CSc2c(F)c(F)c(c(F)c2F)SC[C@@H](C(N)=O)NC(=O)[C@H](CCC(=O)O)NC(=O)CNC(=O)[C@H]([C@@H](C)O)NC(=O)[C@H](CCC(=O)O)NC(=O)[C@@H]2CCCN2C(=O)[C@H](CC(=O)O)NC1=O | Non-Toxic

Source: ChEMBL document CHEMBL4229343, “Perfluoroarene-based peptide macrocycles that inhibit the Nrf2/Keap1 interaction” (Bioorg Med Chem Lett, 2018)
